Data published in ChEMBL document CHEMBL3507680, “University of Dundee, Gates Library screen for HepG2 cell viability”.

Assay: Human HepG2 cell viability assay in 384 well format
Format: toxicity, cell-based
Parameters: dose 125 nL, time 70.5 hour; concentration not given beside the values
Details: HepG2 cells, read-out: Inhibition

Row | SMILES | cytotoxicity at 70.5 h
1 | Cc1nn(CC(C)C)c(N(C)C)c1CNCc1cc2ccccc2[nH]1 | 5.6%
2 | O=C(c1cccnc1)N1CCCC(c2ccnc3nccn23)C1 (stereo not drawn) | 7.06%
3 | O=C(NCCSc1ccccc1)[C@H]1CNC[C@H](C(=O)N2CCOCC2)C1 | -6.2%
4 | Cc1ocnc1C(=O)N1CC[C@@]2(O)CCN(C(=O)N3CCCC3)C[C@H]2C1 | -4.39%
5 | CCCC(=O)NCC(=O)NC(c1ccc(Cl)cc1)C(F)(F)F (stereo not drawn) | 8.36%
6 | CCn1cnnc1CCNC(=O)CCNC(=O)c1ccccc1F | -6.14%
7 | Cc1cc2[nH]cc(C(=O)N3CCCCC3c3ccc(F)cc3)c(=O)n2n1 (stereo not drawn) | -3.07%
8 | O=C1CC(c2cccs2)Cc2[nH]c(=O)ccc21 (stereo not drawn) | -7.47%
9 | CCC(Nc1nnnn1-c1ccccc1)C(=O)NC1CCSCC1 (stereo not drawn) | -9.32%
10 | CCn1cnnc1CNC(=O)N(C)Cc1cccc(OC(F)F)c1 | -0.632%
11 | Cc1sc2nc(CCN)nc(N3CCN(S(C)(=O)=O)CC3)c2c1C | -8.4%
12 | O=C1CCN(C(=O)NCc2ccccc2Oc2ccccc2)CCN1 | 2.87%
13 | N#Cc1ccc(N2CCCC2Cn2cncn2)nc1 (stereo not drawn) | -6.25%
14 | COC(=O)N1CCC(NC2CCSCC2)C1 (stereo not drawn) | 0.96%
15 | COC(=O)[C@H]1CN(C(C)=O)CCN1C(C)=O | -2.71%
16 | O=C(c1cccc(Cl)c1)N1CCCC(Nc2ccc(F)cc2)C1 (stereo not drawn) | 2.07%
17 | O=C(c1ccoc1)N1CC[C@H]2OCC[C@@]2(COc2ncccc2F)C1 | -9.01%
18 | CN(C)C(=O)N1CCN(C(=O)CCc2ccccc2)[C@H]2CS(=O)(=O)C[C@H]21 | -5.59%
19 | Cc1ccc(O)c(-c2cc(NCCO)nc3[nH]ccc23)c1 | -4.62%
20 | Cc1nc(CN2CCO[C@@H]3CN(C(=O)CN(C)C)CC[C@@H]3C2)cs1 | -13.1%
21 | CCN(Cc1nc2c(cnn2C)c(=O)[nH]1)c1ccc(F)cc1 | -3.68%
22 | Cc1c(NC(=O)c2noc3c2CCCC3)cnn1C | 16.1%
23 | O=C(CCN1CCOC1=O)Nc1cnn(-c2ccccc2Cl)c1 | -7.73%

Row | SMILES | cytotoxicity at 70.5 h
24 | NC(=O)N1CCC2(CCN(Cc3ccccn3)C2=O)C1 (stereo not drawn) | -0.213%
25 | Cc1ccccc1CNC(=O)Cn1ncc2c1c(C)nn2C | -9.91%
26 | Cc1nc(-c2cccc(Cl)c2)n(CC(=O)NCC2CCCO2)c(=O)c1C (stereo not drawn) | 3.53%
27 | Cc1nn(CCC#N)c(C)c1CCC(=O)N(C)Cc1ccc(F)cc1F | -4.98%
28 | O=C(c1ccc(F)cc1)N1CC[C@H]2[C@H]1CCN2CC1CCOCC1 | -6.57%
29 | COCCO[C@@H]1CCN(C(=O)c2ccc[nH]2)[C@H]1Cc1cnn(C)c1 | -7.64%
30 | CCN(CC)C(=O)c1cc(C2CCCN2C)ccn1 (stereo not drawn) | 4.19%
31 | Cc1cc(C)n(Cc2ccc(-c3noc(C(=O)NCCO)n3)cc2)n1 | -18.6%
32 | CN1C(=O)C(C)(C)COc2cc(NS(=O)(=O)c3ccccc3)ccc21 | 8.64%
33 | Cc1n[nH]c(C)c1CNC(=O)N1CCCC(Cc2nccn2C)C1 (stereo not drawn) | 0.74%
34 | CN1[C@H](CN2CCCC2)C[C@@H]2CN(C(=O)Cc3cccs3)CC[C@@H]21 | 27.9%
35 | O=C(Nc1cc(C(F)(F)F)c[nH]c1=O)C1CCNCC1 | -12.8%
36 | OCc1cc2ccccc2nc1NCC1CCN(CC(F)(F)F)C1 (stereo not drawn) | 27.3%
37 | CCN(CC)C(=O)c1ccc(CNc2ncc(C#N)cc2Cl)cc1 | -7.7%
38 | CC(=O)Nc1nc(C(=O)NCCOc2cccc(C)c2)cs1 | -8.98%
39 | CCN1CC(C(=O)NCc2cccc(SC)c2)CC1=O (stereo not drawn) | 18%
40 | Fc1ccc(Nc2ccc(C3CCN(Cc4ncc[nH]4)CC3)nc2)nc1 | -4.32%
41 | CCc1nn(C)c(Cl)c1CN(CC)Cc1cnn(CC)c1 | -6.7%
42 | Cc1cc(C(=O)NCc2cccnc2OC(C)C)no1 | -31.2%
43 | COc1ccc(CN2C[C@H]3CCC[C@@H](CN(C)C)[C@H]3C2)cn1 | -2.35%
44 | CN(CC1(CO)CCC1)C(=O)c1cc(COc2ccccc2F)[nH]n1 | -3.92%
45 | CCC(=O)NCC(=O)NCC1CCN(c2cc(Cl)ccc2C)C1 (stereo not drawn) | -1.96%
46 | COc1ccc(SC(C)C(=O)N2CCC(NC(=O)C3CC3)CC2)cc1 (stereo not drawn) | 8.09%

Row | SMILES | cytotoxicity at 70.5 h
47 | Cc1oc(-c2ccc(Cl)cc2)nc1C(=O)NC1=NCCS1 | 11.2%
48 | COCCN1CCN(c2ccc3ccc(C(=O)NC4CC4)cn23)CC1 | -2.48%
49 | CCCc1nccn1-c1ccncc1 | -5.45%
50 | Cc1n[nH]c(C)c1CNC(=O)N(Cc1ccccc1)CC(C)(C)O | -3.61%
51 | O=C(c1ccco1)N1CCCn2cnc(COCC3CC3)c2C1 | -7.39%
52 | Cc1ccc(-n2nnc(C(=O)NCC(F)(F)F)c2C2CC2)cc1 | -5.02%
53 | CC(NC(=O)NCCn1ccnc1)c1ccc2c(c1)OCCCO2 (stereo not drawn) | -13.2%
54 | FC(F)(F)c1cc(NCCn2ncnn2)nc(-c2cccnc2)n1 | -9.6%
55 | COc1cc(CNCc2c(C)nn(C)c2N(C)C)ccc1OCCO | 5.42%
56 | CCS(=O)(=O)CC(=O)NC(C)c1ccccc1Oc1ccccc1 (stereo not drawn) | 2.99%
57 | CCN(CC)c1ccc2ccc(C(=O)N3CCCCO3)cn12 | 3.7%
58 | Cc1nc(COC[C@H]2CC[C@H]3[C@H](CCN3c3ncccn3)O2)cs1 | -6.71%
59 | Cn1c(Cn2cccn2)nnc1C1CCN(Cc2cccnc2)CC1 | -3.7%
60 | Cc1noc(C(C)Nc2ccc3oc(C(C)C)nc3c2)n1 (stereo not drawn) | 1.64%
61 | COc1cccc(OCC2CCCN(Cc3ccncc3)C2)c1 (stereo not drawn) | -10.6%
62 | O=C(COCC1CC1)Nc1cc(S(=O)(=O)NC2CC2)ccc1F | -2.2%
63 | c1ccc(-c2nc(CN3CCCC3Cn3cncn3)cs2)cc1 (stereo not drawn) | 14.3%
64 | COCCN1CC[C@@H]2O[C@H](COCc3csc(C)n3)CC[C@@H]21 | -15.2%
65 | CCn1nc(C)c(CN2CCC(c3ccc(C(=O)O)cc3)C2)c1C (stereo not drawn) | -2.74%
66 | CC(C)c1nc(COc2cccc3c2NC(=O)CO3)cs1 | 13.8%
67 | FC(F)(F)c1ccnc(N2CCCC(N3CCOCC3)C2)c1 (stereo not drawn) | 9.74%
68 | Cc1nc(CCC(N)=O)cc(C2CCNCC2)n1 | 18.8%
69 | O=C(C1CC1)N1CCCC(C2=Nc3ccccc3S(=O)(=O)N2)C1 (stereo not drawn) | -4.52%

Row | SMILES | cytotoxicity at 70.5 h
70 | Cc1noc(NCc2ccc(F)cc2F)n1 | 21.8%
71 | CC1c2cccn2CCN1C(=O)CCc1nc(C2CC2)no1 (stereo not drawn) | -8.57%
72 | Cc1cc(C)c2nc(CN(C)C(C)c3ccncn3)cc(O)c2c1 (stereo not drawn) | -4.38%
73 | CN(C)c1cccc(C2CCCN2CCCN2CCOC2=O)c1 (stereo not drawn) | 7.84%
74 | CCOC(=O)c1n[nH]cc1CN1CCOC(Cc2ccc(F)cc2)C1 (stereo not drawn) | -3.8%
75 | CC(C)CC(C#N)NC(=O)CCNC(=O)C(C)(C)C (stereo not drawn) | 2.87%
76 | Cc1cccc(CN2CC[C@@H]3[C@@H]2CCN3C(=O)c2ccno2)n1 | -4.67%
77 | CC(C)=CCN1CC2(CCN(Cc3ncc[nH]3)CC2)CC1=O | 11.6%
78 | O=C(NCCc1[nH]nc2c1CCCC2)C1CCCN(Cc2ccco2)C1 (stereo not drawn) | -2.55%
79 | CCOC(=O)c1sc(NC(=O)COC)c(C#N)c1C | 28.6%
80 | Nc1nnc(CCNc2ncnc3c2CCN(C(=O)C2CC2)C3)s1 | -4.19%
81 | CC(C)(C)c1nc(CN2CCC(c3nc4cc(Cl)ccc4o3)CC2)no1 | 15.4%
82 | COc1ccc(OC)c(C(O)CNC(=O)Nc2cc(C)nn2C)c1 (stereo not drawn) | -7.8%
83 | Cc1cc(-c2nnc(SCC(=O)O)n2C(C)c2ccccc2)nn1C (stereo not drawn) | -0.677%
84 | O=S(=O)(NCCC(O)c1cccs1)c1c(F)cccc1F (stereo not drawn) | -14.6%
85 | O=S(=O)(c1ccc(Cl)s1)N1CCCn2ncnc21 | -1.11%
86 | NCCn1nc(C2CCN(Cc3ccc(Cl)c(Cl)c3)C2)c2nccnc21 (stereo not drawn) | -4.77%
87 | Cc1cccc(-c2ccc(C(=O)NCC3CCOC3)c(=O)[nH]2)c1 (stereo not drawn) | -28.7%
88 | CN1CCC(Cc2cc(Nc3ncccn3)ncn2)CC1 | -4.15%
89 | O=C(O)c1cnc(-c2cccc3c2CCNC3)c(Cl)c1 | -11.1%
90 | CC(C)(C)c1csc(CN2CCN(S(=O)(=O)c3cccnc3)CC2)n1 | -14.8%
91 | CN(C)C(C(=O)N1CCC(c2ncc[nH]2)CC1)c1ccc2c(c1)OCO2 (stereo not drawn) | -5.4%
92 | Cc1nn(CC(C)C)c(N(C)C)c1CNCCS(C)(=O)=O | 5.47%

Row | SMILES | cytotoxicity at 70.5 h
93 | Cc1nc(C)n(CC2CCCN(Cc3cc(C#N)ccc3F)C2)n1 (stereo not drawn) | 0.508%
94 | CCNc1ccnc(-c2ccnc3c2ccn3C)n1 | -2.33%
95 | CCN(CC)C(=O)CN1CCCC1c1nc(C)c2c(n1)N(C)C(=O)CC2 (stereo not drawn) | -7.02%
96 | COCCN1CCN(CC2CCCCO2)CC1 (stereo not drawn) | 38.7%
97 | CCCNC(=O)NC(C)c1ccccn1 (stereo not drawn) | -11.1%
98 | CC(O)CN1CCC(CNCc2cccc(OC(F)(F)F)c2)CC1 (stereo not drawn) | 5.77%
99 | COc1ccccc1CNC(=O)CNc1ccccc1C(C)=O | -1.58%
100 | Cc1occc1C(=O)N1CCCN(Cc2nccn2C)CC1 | -8.79%
101 | O=C(Nc1nc2c(s1)CCC2)c1cccnc1N1CCOCC1 | -0.827%
102 | Nc1nc(SCc2ccc3c(c2)OCO3)ns1 | -0.0923%
103 | CCN1CCCC(O)(CN(C)Cc2c(C)nn(C)c2C)C1 (stereo not drawn) | 2.33%
104 | Cc1cc(CNC(=O)c2cc(C(C)C)n(C)n2)ccc1S(C)(=O)=O | -8.39%
105 | COc1ccc(OC)c(CN(C)c2nc3c(cnn3C)c(=O)[nH]2)c1 | 42.4%
106 | CCOC(=O)N1CCN(C(=O)c2sc(-c3ccccc3)nc2C)CC1 | 48.7%
107 | O=C(C1CC1)N1C[C@H]2CCCN(S(=O)(=O)c3ccc(Cl)s3)[C@H]2C1 | -0.267%
108 | COC[C@@]12CCO[C@@H]1CCN(Cc1ccccc1F)C2 | -9.38%
109 | O=C(NCCOc1ccc2c(c1)OCO2)C1CC(=O)N(CC2CC2)C1 (stereo not drawn) | 1.74%
110 | CCS(=O)(=O)N1CCN(C(=O)c2cnc3[nH]nc(C)c3c2)CC1 | -5.38%
111 | Cc1nc(C)n(CCNC(=O)C(C)n2ccnc2C(C)C)n1 (stereo not drawn) | -0.492%
112 | c1ccc(C(c2ccccc2)N2CCN(CCn3cncn3)CC2)cc1 | -10.4%
113 | CCC(C)N(Cc1cccnc1)Cc1cc2c(cc1OC)OCO2 (stereo not drawn) | 0.778%
